# Source: patent US7939509B2, “Partial and full agonists of A1 adenosine receptors” (Gilead Sciences, Inc., priority 2002, dated 2011)
# Experiments:
# normal rats = assay: Triglyceride production after Triton WR 1339 injection in rats; assay type: in vivo, rat
# Protocol: FIG. 3 graphs the time-dependent increase of TG caused by Triton […] in the absence or presence of Compound A as described in Example 31. After a 4 hour fast, rats received either vehicle or Compound A (5 mg/kg) via SC injection. After 5 minutes, Triton (400 mg/kg) was given as a slow intravenous bolus. Data are presented as ±SEM of values from 7-8 animals. Slope of the lines (determined by linear regression analysis) was 5.6±0.1 and 3.8±0.2 for vehicle and Compound A groups, respectively. Data were analyzed using 2 way ANOVA followed by Bonferroni's post hoc test.
# (§1) The anti-lipolytic effects of Compound A were studied in awake rats. Animals were fasted overnight before experimental use. On the day of the experiment, animals were put in metabolic cages and left undisturbed to acclimate to the environment for 1-2 hrs. An infusion set (21 G×¾″, 0.8×19 mm U.T.W., 3½″, 9 cm tubing, volume 0.15 ml) was connected to the arterial catheter for blood sampling. A 1% sodium citrate saline solution was used to flush the lines. A pre-treatment blood sample was obtained from each animal to determine baseline values for FFA and TG. Compound A was given via oral gavage, sc injection, iv injection, or iv infusion, as described, for each different series of experiments. Blood samples were collected into serum separator tubes (Becton Dickinson, Franklin Lakes, N.J.) at pre-determined times, Blood was allowed to clot, and then centrifuged at 8000 rpm for 4 min at 4° C. The serum was stored at −80° C. and was thawed at 4° C. for determinations of FFA and TG contents.
# Compound A was synthesized by the Department of Medicinal and Bio-Organic chemistry of CV Therapeutics, Inc. Sodium citrate and Triton WR1339 were purchased from Sigma (St. Louis, Mo.). […] Serum FFA and TGs were measured using commercial kits from Wako Chemicals, Richmond, Va. Glucose and Insulin were measured using commercial kits from Wako Chemicals USA (Richmond, Va.).
# To further investigate the mechanism of the decrease in TG levels by Compound A, total TG production was measured in normal rats. […]
# awake rats = assay: Insulin dose response to reduce FFA with and without Compound A in awake rats; assay type: in vivo, rat
# Protocol: FIG. 6 graphically represents how Compound A potentates the effect of insulin in reducing FFA levels. Shown are the dose response curves for the effect of insulin to reduce FFA obtained in the absence and presence of Compound A (0.5 mg/kg) in awake rats. Both insulin and Compound A were given via IP injection. Each data point is the mean±SEM of the maximal (peak effect) percent decrease in FFA levels from baseline from three to five rats.
# as §1
# The effect of insulin (0.005-1 U/kg) to reduce serum FFA was determined in the absence and presence of a single dose (0.5 mg/kg) of Compound A (FIG. 6). Baseline FFA levels before insulin administration in vehicle and Compound A treated groups were 0.84±0.01 and 0.92±0.02 mM, respectively. […] The insulin dose response to reduce FFA levels was then repeated in the presence of Compound A (0.5 mg/kg). Compound A alone (0.5 mg/kg) caused an 18% decrease in FFA levels. The doses of insulin that cause 50% decrease (ED50) in FFA levels in the absence and presence of Compound A were 0.4 and 0.1 U/kg, respectively.
compound,measurement,setting,value
"O[C@@H]1[C@H](O)[C@@H](CSc2ccccc2F)O[C@H]1n1cnc2c(N[C@@H]3CCC[C@H]3O)ncnc21 [Compound A, 2-{6-[((1R,2R)-2-hydroxycyclopentyl)amino]purin-9-yl}(4S,5S,2R,3R)-5-[(2-fluorophenylthio)methyl]oxolane-3,4-diol]",increase in serum TG caused by Triton vs vehicle-treated animals,"normal rats; 180 minutes post-treatment, p<0.01",significantly less
same,slope of the time-dependent TG increase caused by Triton (linear regression),"normal rats; FIG. 3 legend: 5 mg/kg SC, Triton 400 mg/kg iv, 4 hour fast, vehicle 5.6±0.1",3.8±0.2
same,"TG accumulation, slope of the line (linear regression)","normal rats; text: Triton 600 mg/kg, vehicle printed as 3.8±0.17, p<0.001",5.6 ± 0.12 mg/dL/min
same,decrease in FFA levels by Compound A alone,awake rats; 0.5 mg/kg IP,18%
same,leftward shift of the insulin dose-response to lower FFA,awake rats; Compound A 0.5 mg/kg,4 fold
